Assay results from ChEMBL document CHEMBL1157497, “Theoretical studies on the structure and symmetry of the transmembrane region of glutamatergic GluR5 receptor” (J Med Chem, 2008).

Tests used:
[1] = Inhibition of NMDA receptor
[2] = biological target: Glutamate NMDA receptor; GRIN1/GRIN2B (Homo sapiens, UniProt Q05586+Q13224); experiment: Antagonist activity at NR1/2B receptor expressed in xenopus laevis at pH 6.9 by two electrode voltage clamp method; format: functional
Sequence of Glutamate NMDA receptor; GRIN1/GRIN2B (Q13224 whole entry, other chains not shown): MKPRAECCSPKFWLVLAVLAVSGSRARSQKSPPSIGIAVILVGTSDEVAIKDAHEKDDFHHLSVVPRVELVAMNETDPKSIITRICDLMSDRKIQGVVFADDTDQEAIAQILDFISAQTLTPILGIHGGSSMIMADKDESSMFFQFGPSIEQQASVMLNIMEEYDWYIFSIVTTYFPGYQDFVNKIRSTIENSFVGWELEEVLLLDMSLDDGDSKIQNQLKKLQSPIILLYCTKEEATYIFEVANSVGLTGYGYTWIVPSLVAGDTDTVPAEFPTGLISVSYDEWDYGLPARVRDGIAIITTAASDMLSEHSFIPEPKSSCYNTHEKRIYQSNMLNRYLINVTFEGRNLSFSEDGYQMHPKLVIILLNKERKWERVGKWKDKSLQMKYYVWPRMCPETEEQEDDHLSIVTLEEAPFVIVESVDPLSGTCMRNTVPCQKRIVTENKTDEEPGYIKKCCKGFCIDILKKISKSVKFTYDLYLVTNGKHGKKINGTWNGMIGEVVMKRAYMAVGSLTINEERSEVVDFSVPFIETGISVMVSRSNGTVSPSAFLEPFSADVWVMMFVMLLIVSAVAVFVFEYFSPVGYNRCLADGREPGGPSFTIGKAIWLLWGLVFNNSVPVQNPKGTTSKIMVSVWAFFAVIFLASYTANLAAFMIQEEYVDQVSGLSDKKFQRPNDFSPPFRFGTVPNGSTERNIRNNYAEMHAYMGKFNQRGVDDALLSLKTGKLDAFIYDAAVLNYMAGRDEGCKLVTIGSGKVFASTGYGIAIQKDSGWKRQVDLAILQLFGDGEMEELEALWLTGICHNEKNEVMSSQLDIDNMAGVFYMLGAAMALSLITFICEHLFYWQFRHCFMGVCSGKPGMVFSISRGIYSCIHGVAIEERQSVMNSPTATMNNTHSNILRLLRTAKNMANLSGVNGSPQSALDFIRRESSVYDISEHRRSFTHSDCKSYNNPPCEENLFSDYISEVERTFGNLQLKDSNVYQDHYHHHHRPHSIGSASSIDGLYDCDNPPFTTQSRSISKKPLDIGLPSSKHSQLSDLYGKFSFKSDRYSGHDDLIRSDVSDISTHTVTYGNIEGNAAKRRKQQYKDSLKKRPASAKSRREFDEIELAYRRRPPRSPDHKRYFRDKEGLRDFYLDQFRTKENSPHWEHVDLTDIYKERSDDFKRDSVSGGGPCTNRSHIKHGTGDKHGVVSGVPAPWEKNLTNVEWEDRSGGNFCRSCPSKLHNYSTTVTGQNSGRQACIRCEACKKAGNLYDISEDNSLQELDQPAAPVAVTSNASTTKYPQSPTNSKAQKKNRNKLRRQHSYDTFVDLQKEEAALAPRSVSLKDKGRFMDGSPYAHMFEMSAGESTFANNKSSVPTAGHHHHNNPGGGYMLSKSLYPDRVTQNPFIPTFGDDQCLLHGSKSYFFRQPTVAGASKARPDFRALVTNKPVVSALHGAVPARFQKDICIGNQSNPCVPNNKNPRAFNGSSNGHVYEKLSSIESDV

Which IC50 [1] does the source give for `NCCCCCNC1(c2ccccc2)CCCCC1` here?
Its IC50 is 2100 nM.

Which IC50 [2] does the source give for `CN1CC[C@@]23CCCC[C@@H]2[C@@H]1Cc1ccc(O)cc13` [DEXTRORPHAN] here?
The IC50 was 246 nM.
